# From patent US12358902B2, “5-(2,5-bis(4-chloro-2-isopropylphenyl)thiophen-3-yl)-1H-tetrazole for the topical treatment of bacterial infections” (DENOVAMED INC., priority 2017, dated 2025)
# Columns and labels:
# MRSA (ATCC #33591) = test: rabbit ischemic wound model; format: in vivo, New Zealand white rabbits; conditions: topical daily to day 14; p<0.001 vs control, p<0.03 vs mupirocin
# Protocol: 5-(2,5-bis(4-chloro-2-isopropylphenyl)thiophen-3-yl)-1H-tetrazole was tested for its efficacy against infection in the rabbit ischemic wound model, the gold standard animal model mimicking human DUI. In this model, the ear is made ischemic by division of central and rostral nutrient arteries of New Zealand white rabbits. New Zealand White rabbits were employed for this study and their husbandry and experimental manipulation adhered to standard Guides for the Care and Use of Laboratory Animals (2001). An incision was made to the level of bare cartilage at the base of the ear and followed by injection intradermally with epinephrine to obtain vasoconstriction and aid with skin detachment. Skin is separated from the underlying perichondrium and removed with a 6.0 mm aortic biopsy punch. Food and water were given ad libidum and animals were acclimatized for 7 days with photoperiods of alternating 12 h light and dark provided, along with analgesic (BUPRENEX™ (buprenorphine) 0.02 mg/kg sc) and anaesthesia (isoflurane (0.5-5% with oxygen carrier 0.5-2 L/min) during procedures.
# An ischemia wound healing model was conducted surgically. Each wound was inoculated with 50 μl of 2×10^7 CFU/ml MRSA (ATCC #33591) and dressed. After one day, wounds were treated with either 50 μl control cream containing vehicle (N=4), 50 μl containing mupirocin (N=4), or 50 μl cream containing 5-(2,5-bis(4-chloro-2-isopropylphenyl)thiophen-3-yl)-1H-tetrazole (N=8) daily. Clinical observations were performed on days 1, 3, 5, 7, 10 and 14. Wounds were assessed and observations recorded using the Draize scoring system. Digital photographs of each wound were obtained and documented.
# On day 14 post-wounding, under anesthesia, the animals were euthanized with an intravenous injection of BEUTHANASIA-D™ ([…] and phenytoin sodium) at a dosage of 150 mg/kg of body weight. Specimens including the entire wound, along with approximately 2-3 mm of the normal unwounded skin margins were harvested. Each ear wound specimen was sectioned into halves. For one half of the wound, the wound was placed into a container with 10% neutral buffered formalin and processed for routine histological evaluation. Wound organization was scored for four parameters on a scale of 0-4 at the wound site for inflammation, granulation, angiogenesis, and epithelialization. Wounds were characterized in a blinded manner by a board certified member of the College of American Pathologists. The other half of the wound was weighed (mg) in a sterile Petri dish, then placed in a sterile disposable tissue grinder and homogenized for quantitative microbiology. The tube containing the ground tissue sample was filled with 5 ml 0.85% sterile saline. Five 1:10 serial dilutions were then prepared with 0.5 ml aliquots and 4.5 ml of sterile saline per aliquot. Subsequently, 0.1 ml of the homogenate and each dilution was drop plated on trypticase soy agar and placed in an incubator at 37° C. The number of viable organisms per wound was recorded as cfu/gram of tissue.
# [1] = system: S. aureus MRSA USA100 epidemic strain; test: broth microdilution MIC (CLSI); format: cell-based; conditions: Staphylococcus aureus, read-out: Antibacterial activity (MIC)
# Protocol: (§1) Using a broth microdilution assay according to Clinical Laboratory Standards Institute (CSLI) guidelines, we tested 5-(2,5-bis(4-chloro-2-isopropylphenyl)thiophen-3-yl)-1H-tetrazole (“Test Article” in below table) to establish MICs against a broad range of MDR bacteria and noted substantive activity versus methicillin-resistant Staphylococcus aureus (MRSA), vancomycin-resistant Enterococcus (VRE) and Streptococcus spp. Antimicrobial susceptibility testing was performed by a microdilution broth assay according to CLSI guidelines. The inoculum was prepared from stationary-phase cultures diluted in water. Microtiter plate wells received aliquots of 100 μL of the compound diluted in Mueller-Hinton II cation adjusted media. The final concentration of compound typically ranged from 250 to 0.125 μg/ml in serial two-fold dilutions. In addition to the test compound, growth and sterility controls were included, along with DMSO vehicle control rows. The microtiter plates were inoculated with 5×10^5 bacteria and incubated overnight at 35° C. in a humidified atmosphere.
# [2] = system: S. aureus MRSA clinical isolate multi resistant; test: broth microdilution MIC (CLSI); format: cell-based; conditions: Staphylococcus aureus, MRSA, read-out: Antibacterial activity (MIC)
# Protocol: as §1
# S. aureus MRSA ATCC43300 = test: broth microdilution MIC (CLSI); format: cell-based; conditions: Staphylococcus aureus, read-out: Antibacterial activity (MIC)
# Protocol: as §1
# [3] = system: S. aureus MRSA MISA MU3 NRS2; test: broth microdilution MIC (CLSI); format: cell-based; conditions: Staphylococcus aureus, read-out: Antibacterial activity (MIC)
# Protocol: as §1
# [4] = system: S. aureus MRSA clinical isolate ciprofloxacin resistant; test: broth microdilution MIC (CLSI); format: cell-based; conditions: Staphylococcus aureus, MRSA, read-out: Antibacterial activity (MIC)
# Protocol: as §1
# [5] = system: S. aureus MRSA clinical isolate penicillin and erythromycin resistant; test: broth microdilution MIC (CLSI); format: cell-based; conditions: Staphylococcus aureus, MRSA, read-out: Antibacterial activity (MIC)
# Protocol: as §1
# [6] = system: S. aureus MRSA MISA MU50 NRS1; test: broth microdilution MIC (CLSI); format: cell-based; conditions: Staphylococcus aureus, read-out: Antibacterial activity (MIC)
# Protocol: as §1
# [7] = system: S. aureus MRSA clinical isolate from Manchester; test: broth microdilution MIC (CLSI); format: cell-based; conditions: Staphylococcus aureus, MRSA, read-out: Antibacterial activity (MIC)
# Protocol: as §1
# [8] = system: S. aureus MRSA USA200 epidemic strain; test: broth microdilution MIC (CLSI); format: cell-based; conditions: Staphylococcus aureus, read-out: Antibacterial activity (MIC)
# Protocol: as §1
# [9] = system: S. aureus MRSA USA300 epidemic strain; test: broth microdilution MIC (CLSI); format: cell-based; conditions: Staphylococcus aureus, read-out: Antibacterial activity (MIC)
# Protocol: as §1
# Clostridium spp. = test: activity against Clostridium spp.; format: cell-based
smiles,measurement,setting,value
"C/C(=C\C(=O)OCCCCCCCCC(=O)O)C[C@@H]1OC[C@H](C[C@@H]2O[C@H]2[C@@H](C)[C@H](C)O)[C@@H](O)[C@H]1O [mupirocin, reference compound]",percent wound contraction over time (FIG. 1),MRSA (ATCC #33591),control group had less wound contraction than either treated group
"CN[C@H](CC(C)C)C(=O)N[C@H]1C(=O)N[C@@H](CC(N)=O)C(=O)N[C@H]2C(=O)N[C@H]3C(=O)N[C@H](C(=O)N[C@H](C(=O)O)c4cc(O)cc(O)c4-c4cc3ccc4O)[C@H](O)c3ccc(c(Cl)c3)Oc3cc2cc(c3O[C@@H]2O[C@H](CO)[C@@H](O)[C@H](O)[C@H]2O[C@H]2C[C@](C)(N)[C@H](O)[C@H](C)O2)Oc2ccc(cc2Cl)[C@H]1O [vancomycin, reference compound]",MIC,[1],1 µg/mL
same,MIC,[2],0.5 µg/mL
same,MIC,S. aureus MRSA ATCC43300,0.5 µg/mL
same,MIC,[3],1 µg/mL
same,MIC,[4],0.5 µg/mL
same,MIC,[5],1 µg/mL
same,MIC,[6],4 µg/mL
same,MIC,[7],0.5 µg/mL
same,MIC,[8],0.5 µg/mL
same,MIC,[9],1 µg/mL
"CC(C)c1cc(Cl)ccc1-c1cc(-c2nnn[nH]2)sc1-c1ccc(Cl)cc1C(C)C [5-(4,5-bis(4-chloro-2-isopropylphenyl)thiophen-2-yl)-1H-tetrazole, reference compound]",activity,Clostridium spp.,inactive
